The values that follow come from patent publication US12678440B2, “Compositions and methods for treating misfolded protein ocular disorders” (CASE WESTERN RESERVE UNIVERSITY, priority 2020, dated 2026).

Data set [1] deals with Rho^P23H/+ mice. The data set can be described thus: Electroretinogram (ERG) after intravitreal injection. In kind it is in vivo, mouse. Here is the method:
The C57BL/6J (Rho^+/+) mice and Rho^P23H/P23H mice were purchased from Jackson Laboratory (Stock No 017628) generated by Dr. Krzysztof Palczewski's lab. The Rho^P23H/P23H mice were crossed with wild-type C57BL/6J mice to produce P23H heterozygotes mice. Genotyping for all strains was conducted as guided using forward and reverse primers: 1) GGTAGCACTGTTGGGCATCT (SEQ ID NO: 5); and 2) GACCCCACAGAGACAAGCTC (SEQ ID NO: 6), respectively. The PCR products at 573 and 399 bp indicated the P23H knock-in mutant and WT allele of the RHO gene, respectively. Mice were bred and housed under standard 12-h light/12-h dark conditions in the University of Pittsburgh animal facility. All animal experiments were approved by the University of Pittsburgh Institutional Animal Care and Use Committee (IACUC) following the guide for the Animal Welfare Act and Regulations.
To determine the effect of compounds on retina in vivo, we administered compounds directly into the vitreous space. Briefly, mice were treated with 1% tropicamide eye drops (Akorn, Lake Forest, IL USA) to dilate the pupils and then they were anesthetized with an intraperitoneal injection of ketamine (Henry Schein, Dublin, OH USA) at 80 mg/kg body weight (bw) and xylazine (Bimeda, Le Sueur, MN USA) at 7 mg/kg bw. One drop of 0.5% tetracaine hydrochloride (TCI, Tokyo, Japan) was applied to mouse eyes as topical anesthetics before injection. Eyes were kept lubricated during the injections by a 0.3% hypromellose eye gel (Alcon, Fort Worth, TX USA). A heating pad was used for maintaining body temperature. Mice were positioned to expose the sclera of the eyes. A 30-gauge needle (Medline, Northfield, IL USA) was used to puncture a hole through sclera behind limbus at a 45° angle. A 33-gauge blunt-end needle (Hamilton, Reno, NV USA) was used to be inserted into the hole and a total of 0.5 μL of sterile PBS or MTX in PBS was slowly injected into the posterior chamber and the needle was kept in place for about 30 seconds before a slow removal of the needle. A small amount of Triantibiotic ointment (Medline, Northfield, IL USA) was applied on the injection site to prevent infection. A single IVI with 25 or 100 pmol of MTX was administered to one eye of each Rho^P23H/+ mice at postnatal day (PND) 15, and PBS was injected to the other eye as vehicle control. We also performed four weekly IVIs of MTX or PBS to the second group of Rho^P23H/+ mouse eyes at PND 15, 22, 29 and 36.
ERG was performed using the Celeris system (Diagnosys, Lowell, MA, USA), as described previously. Before each test, mice were kept in the dark overnight. Pupils were dilated with 1% tropicamide (Akorn, Lake Forest, IL, USA). Mice were anesthetized with an intraperitoneal injection of ketamine at 80 mg/kg bw and xylazine at 7 mg/kg bw. Eyes were lubricated by a 0.3% hypromellose eye gel (Alcon, Fort Worth, TX, USA). A heating pad was used to maintain body temperature at 37° C. Scotopic ERG responses of dark-adapted eyes to ten flashes from 0.01 cd·s/m^2 to 30 cd·s/m^2 were recorded and averaged from three sweeps per flash intensity with inter-sweep intervals of 10 to 30 s. After exposed to 10 cd/m^2 illumination for 5 min, the photopic ERG responses were recorded from the light-adapted eyes in respond to flashes from 0.01 cd·s/m^2 to 30 cd·s/m^2 in addition to a 10 cd/m^2 background light. P-values were calculated by a two-way ANOVA to determine the statistical significance between the response amplitudes in the MTX-treated and vehicle (PBS) group. Factor 1, treatment condition; and factor 2, flash intensity.

Data set [2] deals with rabbits. The settings on record: 1.76 μmol MTX (about 1 mM in vitreous); cited from earlier work.
Data set [3] deals with adRP-causing rhodopsin mutants (T4R, P23H, P53R, C110Y, D190N, P267L). As to the kind of experiment: High-content imaging of rhodopsin mutants stably expressed in U2OS cells. The format is cell-based, mouse. The settings on record: for immunofluorescence intensities of rhodopsin mutants: six adRP mutants. Here is the method: Seven U2OS stable cell lines were generated which separately express the WT and six mutant mouse rhodopsin (T4R, P23H, P53R, C110Y, D190N, P267L) fused with Venus fluorescence protein. Briefly, the U2OS cells (ATCC, Manassas, VA, USA) were transfected with the pcDNA3.1 Zeo containing the cDNA of mouse WT or T4R, P23H, P53R, C110Y, D190N, P267L rhodopsin fused with Venus and transfected cells were incubated in DMEM with 10% FBS for 48 h before addition of 400 μg/mL of Zeocin for positive clone selection. Colonies of cells survived from 1 week of Zeocin selection were collected, and expression of WT and six mutant rhodopsins were confirmed by fluorescence of Venus and immunoblotting of rhodopsin.
To assess the effect of active compounds on the clearance of P23H rhodopsin in mammalian cells, an image-based assay was performed using NIH3T3 (RHO^WT/GFP) and NIH3T3 (RHO^P23H/GFP) cells, as described previously. Briefly, cells were seeded at 5000 cells per well in 384-well plates and incubated at 37° C. in 5% CO2 for 4 hours until cells were attached to the bottom of the plate. Attached cells were treated with compounds for 24 hours. The assay medium was aspirated, and cells were fixed with 4% paraformaldehyde at 20 μL per well for 20 min at room temperature. Cell membranes were permeabilized with PBS containing 0.1% Triton X-100 (PBST) and then incubated with 50 µg/mL 1D4 anti-rhodopsin antibody at 15 μL/well for 1 hour at room temperature. After three washes with 50 μl/well of PBST, cells were incubated with 15 μL/well Cy3-conjugated goat anti-mouse IgG antibody for 1 hour at room temperature. After three washes with 50 μl/well of PBST, cells were incubated in 50 μl/well of PBS containing 2 μg/mL Hoechst 33342 to stain the nuclei. Finally, the immunostained cells were imaged by an ImageExpress High Content Imaging System (MolecularDevices). Immunofluorescence of rhodopsin was measured by MetaXpress software using the mean of total fluorescence of Cy3 channel per cell per well taken from five fields containing 600-1000 intact cells per well. After normalizing the fluorescence intensities of rhodopsin to the DMSO treated cells as 0% and cells immunostained with secondary antibody only as −100%, dose-response curves for each compound were plotted and fitted by a modified Hill function using the Origin software. The high-content imaging experiments for hit validation were performed at the CWRU drug discovery facility, and the high-content imaging analyses for the MTX co-treatment with BafA1 and MG-132 were undertaken at the University of Pittsburgh Drug Discovery Institute.

Where [4] appears, read: single IVI 25 pmol at PND 15, ERG at PND 32, vs PBS or non-treated.
Setting [5] is: single IVI 100 pmol at PND 15, ERG at PND 32.

For `CN(Cc1cnc2nc(N)nc(N)c2n1)c1ccc(C(=O)N[C@@H](CCC(=O)O)C(=O)O)cc1` [CL-009, N-[4-[[(2,4-diamino-6-pteridinyl)methyl]methylamino]benzoyl]-L-glutamic acid], the “multi-flash scotopic and photopic b-waves” value in data set [1] (four weekly IVIs from PND 15, ERG at PND 44, vs PBS) was “significantly increased”. Also, in data set [1] (four weekly IVIs of 100 pmol, vs PBS, at higher flash intensities), the photopic b-waves entry was “higher”. In data set [1] (setting [4]), the “multi-flash scotopic ERG a- and b-waves” value is “significantly higher”; the “photopic ERG responses” value is given as “higher”. Besides, in data set [1] (setting [5]), the “multi-flash scotopic ERG a- and b-waves” value is “no effect”; the “photopic ERG responses” value is “did not show any effects”. In addition, the “ratio of scotopic and photopic b- to a-wave amplitudes” value in data set [1] (single IVI 25 or 100 pmol) is “not affected”. Besides, in data set [2], the “retinal damage after intravitreal injection” value is on record as “Retinal damages were observed”. Also, in data set [3] (seven doses), the “rhodopsin immunofluorescence in cells expressing the P23H, C110Y, D190N and P267L mutants” value is recorded as “dose-dependent reductions”.
Regarding `CC(=O)OC(CC(=O)O)C[N+](C)(C)C` (stereo not shown) [CL-002], the “immunofluorescence intensities of rhodopsin mutants” value in data set [3] is on record as “reduced”.
On the same count and under the same terms, the value for `CCn1cnc2c(N)ncnc21` [CL-007] was “reduced”; that for `CC(=O)OC(CC(=O)[O-])C[N+](C)(C)C` (stereo not shown) [CL-001] was “reduced”; that for `NCC(=O)COP(=O)(O)O` [CL-005] was “reduced”.
